From US9486506B2 (Novo Nordisk A/S, priority 2011, dated 2016)
Where two headings read alike, the source gives them in different places. Numbered stars: 1 amine (or outer) side, 2 acyl side, 3 side chain; on linkers, the order of the positions; unused ones are H or OH. Side chains are listed from the residue outwards. Peptide text beside a SMILES is read from it. * marks the point of attachment. C18 diacid = O=C(O)CCCCCCCCCCCCCCCCC(=O)*; C16 diacid = O=C(O)CCCCCCCCCCCCCCC(=O)*; γGlu = O=C(O)[C@H](CCC(=O)[*:2])N[*:1]; AEEA = NCCOCCOCC(=O)O

Columns and labels:
[1] = Assay (X) Chemical stability assessment by RP-UPLC; format: physicochemical; settings: pH 8.15, 14 days at 37° C. vs 5° C., 333 μM
[2] = Assay (XI) Pharmacokinetic study in minipigs; format: in vivo, Göttingen minipigs; settings: i.v. administration, terminal half-life; for half-life: minipig, iv, read-out: iv PK minipig [T½] (converted)
Experimental: Buffer: • 50 mM Dinatriumphosphatdihydrat • 184 mM Propylenglycol • 58 mM Phenol • pH adjusted to 8.15 with H3PO4. In cases where pH was adjusted to 8.15 after re-suspension of analogues, 0.2 M NaOH was used. Assay (XI) Pharmacokinetic Study in Minipigs
This is done in a pharmacokinetic (PK) study, whereamong other parameters the terminal half-life and the clearance of the derivative in question is determined. Increasing the terminal half-life and decreasing the clearance means that the compound of study is eliminated slower from the body.
Male or female Göttingen minipigs were obtained from Ellegaard Göttingen Minipigs (Dalmose, Denmark) approximately 7-14 months of age and weighing from approximately 16-35 kg were used in the studies. The minipigs were housed either individually (pigs with permanent catheters) or in a group and fed restrictedly once or twice daily with SDS minipig diet (Special Diets Services, Essex, UK). In some studies two permanent central venous catheters were implanted in vena cava caudalis or cranialis in each animal after at least 2 weeks of acclimatisation. […] On each dosing occasion these pigs were instrumented with a venflon in one ear vein through which the derivatives were dosed. Blood sampling was done by venipuncture in v. jugularis or v. cava cranialis
The animals were either unfasted or fasted for approximately 18 h before dosing and from 0 to 4 h after dosing, but had ad libitum access to water during the whole period.
Intravenous injections (the volume corresponding to usually 2-3 nmol/kg, for example 0.1 ml/kg) of the compounds were given through one catheter or through the venflon, and blood was sampled at predefined time points for up till 13 days post dosing (preferably through the other catheter or by venipuncture). Blood samples (for example 0.8 ml) were collected in tubes with EDTA buffer (8 mM) (sometimes aprotinin 500 KIU/ml blood was added) and then centrifuged at 4° C. and 1942 G for 10 minutes. […] Based on these measurements, time-plasma concentration profiles for the compound of study are plotted and a so-called non-compartmental pharmacokinetic analysis of the data is performed in WinNonlin v. 5.0 or Phoenix v. 6.2 (Pharsight Inc., Mountain View, Calif., USA) or other relevant software for PK analysis. For most compounds, the terminal part of the plasma-concentration profiles will be linear when drawn in a semi-logarithmic plot, reflecting that after the initial distribution, drug is removed from the body at a constant fractional rate. The rate (lambda Z or is equal to minus the slope of the terminal part of the plot. From this rate, also the terminal half-life may be calculated, as t½=ln(2)/λz (see, e.g., Johan Gabrielsson and Daniel Weiner: Pharmacokinetics and Pharmacodynamic Data Analysis. Concepts & Applications, 3rd Ed., Swedish Pharmaceutical Press, Stockholm (2000)).
Clearance is defined as the dose (D) divided by area under the curve (AUC) on the plasmaconcentration versus time profile (Rowland, M and Tozer T N: Clinical Pharmacokinetics: Concepts and Applications, 3rd edition, 1995 Williams Wilkins)

glucagon receptor = target: T1, glucagon receptor (Homo sapiens, UniProt P47871); test: Assay (I) Glucagon activity (cAMP biosensor, FLIPR); format: cell-based
T1 construct: expressed in transfected cells
T1 sequence (P47871 26-477): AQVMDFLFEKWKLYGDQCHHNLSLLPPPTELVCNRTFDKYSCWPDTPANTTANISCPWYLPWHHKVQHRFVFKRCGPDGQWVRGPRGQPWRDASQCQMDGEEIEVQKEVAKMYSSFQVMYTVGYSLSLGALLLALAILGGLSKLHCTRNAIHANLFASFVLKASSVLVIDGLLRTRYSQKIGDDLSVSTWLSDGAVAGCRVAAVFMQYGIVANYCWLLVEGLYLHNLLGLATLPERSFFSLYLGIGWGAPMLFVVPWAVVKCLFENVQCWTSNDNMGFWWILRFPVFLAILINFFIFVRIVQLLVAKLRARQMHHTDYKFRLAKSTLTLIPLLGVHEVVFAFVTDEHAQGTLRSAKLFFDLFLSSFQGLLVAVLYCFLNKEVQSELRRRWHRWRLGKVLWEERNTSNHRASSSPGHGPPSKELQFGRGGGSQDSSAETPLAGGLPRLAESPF

Row | Chemical stability [Purity loss/14 days 37 C.] [1] [%] | half-life ([2]; in vivo) [h] | iv PK minipig [T½] [2] [h] | Structure (SMILES) | EC50 (glucagon receptor) [nM] | half-life ([2]; both sexes, Göttingen, plasma) [h]
1 | 5.1 | 76.4 | – | CC(C)C[C@H](NC(=O)[C@H](CC(=O)O)NC(=O)[C@H](CC(C)C)NC(=O)[C@H](Cc1ccc(O)cc1)NC(=O)[C@H](CCCCN)NC(=O)[C@H](CO)NC(=O)[C@H](Cc1ccc(O)cc1)NC(=O)[C@H](CC(=O)O)NC(=O)[C@H](CO)NC(=O)[C@@H](NC(=O)[C@H](Cc1ccccc1)NC(=O)[C@@H](NC(=O)CNC(=O)[C@H](CCC(N)=O)NC(=O)[C@H](CO)NC(=O)[C@@H](N)Cc1c[nH]cn1)[C@@H](C)O)[C@@H](C)O)C(=O)N[C@@H](CCCNC(=N)N)C(=O)N[C@@H](CCCNC(=N)N)C(=O)N[C@@H](C)C(=O)N[C@@H](CCC(N)=O)C(=O)N[C@@H](CC(=O)O)C(=O)N[C@@H](Cc1ccccc1)C(=O)N[C@H](C(=O)N[C@@H](CCCCNC(=O)CC[C@H](NC(=O)CC[C@H](NC(=O)COCCOCCNC(=O)COCCOCCNC(=O)CC[C@H](NC(=O)CCCCCCCCCCCCCCCCC(=O)O)C(=O)O)C(=O)O)C(=O)O)C(=O)N[C@@H](Cc1c[nH]c2ccccc12)C(=O)N[C@@H](CC(C)C)C(=O)N[C@@H](CC(C)C)C(=O)N[C@@H](CO)C(=O)N[C@H](C(=O)O)[C@@H](C)O)C(C)C [Example 13, N^ε24-[(4S)-4-carboxy-4-[[(4S)-4-carboxy-4-[[2-[2-[2-[[2-[2-[2-[[(4S)-4-carboxy-4-(17-carboxyheptadecanoylamino)butanoyl]amino]ethoxy]ethoxy]acetyl]amino]ethoxy]ethoxy]acetyl]amino]butanoyl]amino]butanoyl]-[Leu^16,Lys^24,Leu^27,Ser^25]-Glucagon] (H-HSQGTFTSDYSKYLDLRRAQDFVK([γGlu-γGlu-AEEA-AEEA-γGlu-C18 diacid])WLLST-OH; N-terminus and C-terminus assumed) | – | –
2 | – | – | – | CC(C)C[C@H](NC(=O)[C@H](CC(=O)O)NC(=O)[C@H](CC(C)C)NC(=O)[C@H](Cc1ccc(O)cc1)NC(=O)[C@H](CCCNC(=N)N)NC(=O)[C@H](CO)NC(=O)[C@H](Cc1ccc(O)cc1)NC(=O)[C@H](CC(=O)O)NC(=O)[C@H](CO)NC(=O)[C@@H](NC(=O)[C@H](Cc1ccccc1)NC(=O)[C@@H](NC(=O)CNC(=O)[C@H](CCC(N)=O)NC(=O)[C@H](CO)NC(=O)[C@@H](N)Cc1c[nH]cn1)[C@@H](C)O)[C@@H](C)O)C(=O)N[C@@H](CCCNC(=N)N)C(=O)N[C@@H](CCCNC(=N)N)C(=O)N[C@@H](C)C(=O)N[C@@H](CCC(N)=O)C(=O)N[C@@H](CC(=O)O)C(=O)N[C@@H](Cc1ccccc1)C(=O)N[C@H](C(=O)N[C@@H](CCCCNC(=O)CC[C@H](NC(=O)CC[C@H](NC(=O)COCCOCCNC(=O)COCCOCCNC(=O)CC[C@H](NC(=O)CCCCCCCCCCCCCCC(=O)O)C(=O)O)C(=O)O)C(=O)O)C(=O)N[C@@H](Cc1c[nH]c2ccccc12)C(=O)N[C@@H](CC(C)C)C(=O)N[C@@H](CC(C)C)C(=O)N[C@@H](CO)C(=O)N[C@H](C(=O)O)[C@@H](C)O)C(C)C [Example 25, N^ε24-[(4S)-4-carboxy-4-[[(4S)-4-carboxy-4-[[2-[2-[2-[[2-[2-[2-[[(4S)-4-carboxy-4-(15-carboxypentadecanoylamino)butanoyl]amino]ethoxy]ethoxy]acetyl]amino]ethoxy]ethoxy]acetyl]amino]butanoyl]amino]butanoyl]-[Arg^12,Leu^16,Lys^24,Leu^27,Ser^28]-Glucagon] (H-HSQGTFTSDYSRYLDLRRAQDFVK([γGlu-γGlu-AEEA-AEEA-γGlu-C16 diacid])WLLST-OH) | 0.067 | 59.6
3 | 4.2 | – | 83.0 | CC(C)C[C@H](NC(=O)[C@H](Cc1c[nH]c2ccccc12)NC(=O)[C@H](CCCCNC(=O)CC[C@H](NC(=O)CC[C@H](NC(=O)COCCOCCNC(=O)COCCOCCNC(=O)CC[C@H](NC(=O)CCCCCCCCCCCCCCCCC(=O)O)C(=O)O)C(=O)O)C(=O)O)NC(=O)[C@@H](NC(=O)[C@H](Cc1ccccc1)NC(=O)[C@H](CCC(=O)O)NC(=O)[C@H](CCC(N)=O)NC(=O)[C@H](C)NC(=O)[C@H](CCCNC(=N)N)NC(=O)[C@H](CCCNC(=N)N)NC(=O)[C@@H](NC(=O)[C@H](CC(=O)O)NC(=O)[C@H](CC(C)C)NC(=O)[C@H](Cc1ccc(O)cc1)NC(=O)[C@H](CCCCN)NC(=O)[C@H](CO)NC(=O)[C@@H](NC(=O)[C@H](CC(=O)O)NC(=O)[C@H](CO)NC(=O)[C@@H](NC(=O)[C@H](Cc1ccccc1)NC(=O)[C@@H](NC(=O)CNC(=O)[C@H](CCC(N)=O)NC(=O)[C@H](CO)NC(=O)[C@@H](N)Cc1c[nH]cn1)[C@@H](C)O)[C@@H](C)O)C(C)C)[C@@H](C)O)C(C)C)C(=O)N[C@@H](CC(C)C)C(=O)N[C@@H](CO)C(=O)N[C@H](C(=O)O)[C@@H](C)O [Example 38, N^ε24-[(4S)-4-carboxy-4-[[(4S)-4-carboxy-4-[[2-[2-[2-[[2-[2-[2-[[(4S)-4-carboxy-4-(17-carboxyheptadecanoylamino)butanoyl]amino]ethoxy]ethoxy]acetyl]amino]ethoxy]ethoxy]acetyl]amino]butanoyl]amino]butanoyl]-[Val10,Thr16,Glu21,Lys24,Leu27,Ser28]-Glucagon] (H-HSQGTFTSDVSKYLDTRRAQEFVK([γGlu-γGlu-AEEA-AEEA-γGlu-C18 diacid])WLLST-OH) | – | –

Row | Structure (SMILES) | Chemical stability [Purity loss/14 days 37 C.] [1] [%] | half-life ([2]; in vivo) [h] | iv PK minipig [T½] [2] [h] | EC50 (glucagon receptor) [nM] | half-life ([2]; both sexes, Göttingen, plasma) [h]
4 | CC(C)C[C@H](NC(=O)[C@H](CC(=O)O)NC(=O)[C@H](CC(C)C)NC(=O)[C@H](Cc1ccc(O)cc1)NC(=O)[C@H](CCCNC(=N)N)NC(=O)[C@H](CO)NC(=O)[C@H](Cc1ccc(O)cc1)NC(=O)[C@H](CC(=O)O)NC(=O)[C@H](CO)NC(=O)[C@@H](NC(=O)[C@H](Cc1ccccc1)NC(=O)[C@@H](NC(=O)CNC(=O)[C@H](CCC(N)=O)NC(=O)[C@H](CO)NC(=O)[C@@H](N)Cc1c[nH]cn1)[C@@H](C)O)[C@@H](C)O)C(=O)N[C@@H](CCCNC(=N)N)C(=O)N[C@@H](CCCNC(=N)N)C(=O)N[C@@H](C)C(=O)N[C@@H](CCC(N)=O)C(=O)N[C@@H](CC(=O)O)C(=O)N[C@@H](Cc1ccccc1)C(=O)N[C@H](C(=O)N[C@@H](CCCCNC(=O)CC[C@H](NC(=O)CC[C@H](NC(=O)COCCOCCNC(=O)COCCOCCNC(=O)CC[C@H](NC(=O)CCCCCCCCCCCCCCCCC(=O)O)C(=O)O)C(=O)O)C(=O)O)C(=O)N[C@@H](Cc1c[nH]c2ccccc12)C(=O)N[C@@H](CC(C)C)C(=O)N[C@@H](CC(C)C)C(=O)N[C@@H](CO)C(=O)N[C@H](C(=O)O)[C@@H](C)O)C(C)C [Example 15, N^ε24-[(4S)-4-carboxy-4-[[(4S)-4-carboxy-4-[[2-[2-[2-[[2-[2-[2-[[(4S)-4-carboxy-4-(17-carboxyheptadecanoylamino)butanoyl]amino]ethoxy]ethoxy]acetyl]amino]ethoxy]ethoxy]acetyl]amino]butanoyl]amino]butanoyl]-[Arg^12,Leu^16,Lys^24,Leu^27,Ser^28]-Glucagon] (H-HSQGTFTSDYSRYLDLRRAQDFVK([γGlu-γGlu-AEEA-AEEA-γGlu-C18 diacid])WLLST-OH) | 5.3 | – | – | 0.255 | 77.4
